Source: patent US20140037604A1, “NUTRITIONAL COMPOSITIONS COMPRISING ALPHA-HYDROXYISOCAPROIC ACID” (NESTEC S.A., priority 2011, published 2014)
Entries after “also recorded” stand apart in the source; their conditions may differ. Where two headings read alike, the source gives them in different places.

Experiments:
[1] = system: intestinal mammalian target of rapamycin (mTOR); conditions: piglet stressed with LPS; cited from earlier work
[2] = system: protein synthesis in gastrocnemius, liver and heart; experiment: In vivo rate of tissue protein synthesis, flooding-dose technique with [3H]-L-phenylalanine; design: species or system male Wistar rats; conditions: for In-vivo-determined tissue protein synthesis: Liver / In-vivo-determined tissue protein synthesis: Heart: freely fed rats; for In-vivo-determined tissue protein synthesis: Heart: no unit in table (text b163: nmol Phe/h/mg protein); for Immobilization (casting)-induced decrease in muscle protein synthesis: gastrocnemius, 7 days of immobilization
Experimental: (§1) Water was provided ad libitum.
The in vivo rate of protein synthesis in gastrocnemius, liver and heart (ventricle only) was determined using the flooding-dose technique, exactly as described (Vary T C and Lang C H, Assessing effects of alcohol consumption on protein synthesis in striated muscles. Methods Mol Biol 447: 343-355, 2008). A P-50 catheter was placed in the left carotid artery for the withdrawal of blood. Rats were injected intravenously (IV) with [^3H]-L-phenylalanine (Phe; 150 mM, 30 μCi/ml; 1 ml/100 g body weight) and blood was collected 15 min later for determining the plasma Phe concentration and radioactivity. Thereafter, tissues were rapidly excised and a portion freeze-clamped and then stored at −70° C. The rate of protein synthesis was calculated by dividing the amount of radioactivity incorporated into protein by the plasma Phe specific radioactivity. The specific radioactivity of the plasma Phe was measured by high performance liquid chromatography (HPLC) analysis of supernatant from trichloroacetic acid (TCA) extracts of plasma. In addition, samples of fresh muscle were homogenized for Western blot and analysis of selected proteins and another piece of tissue used for qRT-PCR, as described below.

[3] = Blood chemistry profile, metabolic substrates and hormone (serum); type: in vivo, male Wistar rats; conditions: for Insulin: ELISA; for Insulin / HOMA-IR (homeostatic model assessment of insulin resistance) / Triglycerides / ALT / AST / Albumin / BUN / Bilirubin, total / Calcium / Chloride / Cholesterol / Creatinine / Glucose / LDH / Phosphorous / Potassium / Protein, total / Sodium: means ± SEM; for HOMA-IR (homeostatic model assessment of insulin resistance): calculated from insulin and glucose; for ALT / AST / Albumin / BUN / Bilirubin, total / Calcium / Chloride / Cholesterol / Creatinine / Glucose / LDH / Phosphorous / Potassium / Protein, total / Sodium: serum; for Sodium: all studies combined
Experimental: (§2) Blood was collected from the arterial catheter while rats were anesthetized and prior to injection of [^3H]-Phe. Blood was dispensed to determine standard hematological and biochemical endpoints. For hematology analyses, 250-500 μl of blood was dispensed to tubes containing EDTA (BD No. 365974; Fisher Scientific). Hematology analyses (Heska CBC-Diff Hematology Analyzer, Loveland, Colo.) included: red and white blood cell counts, hematocrit, hemoglobin, platelets, and differential leukocyte counts. Reticulocytes were counted manually using methylene blue stain. In addition, 900 μl blood was dispensed to a tube containing 100 μl of 0.109 M sodium citrate (BD Medical No. 363083; Fisher Scientific) for measurement of prothrombin time (BBL Fibrometer System, Cockeysville, Md.). The remaining blood was dispensed to a silicone-coated collection tube (BD No. 366381; Fisher Scientific) and allowed to clot. Clotted blood samples were centrifuged in a Beckman Coulter Allegra X-12R centrifuge at 3500 rpm for 5 min at 4° C., and the serum was collected and stored. Biochemical analyses on serum was performed on a Cobas Mira Plus Chemistry Analyzer (Diamond Diagnostics, Holliston, Mass.) and included: total bilirubin, glucose, aspartate aminotransferase, alanine aminotransferase, lactate dehydrogenase, albumin, calcium, creatinine, urea, phosphate, total cholesterol, chloride, and total protein. Serum sodium and potassium were analyzed by flame photometer (IL940; Instrumentation Laboratory, Lexington, Mass.). Triglycerides and free fatty acids (FFAs) were determined colorimetrically (Abcam, Cambridge, Mass.; Wako Diagnostics, Richmond, Va., respectively). Insulin was determined by ELISA (Alpco diagnostics, Salem, N.H.). The homeostatic model assessment of insulin resistance (HOMA-IR) was calculated to provide an estimate of whole-body insulin resistance (Turner R C, Holman R R, Matthews D, Hockaday T D and Peto J. Insulin deficiency and insulin resistance interaction in diabetes: estimation of their relative contribution by feedback analysis from basal plasma insulin and glucose concentrations. Metabolism 28: 1086-1096,1979).

Hematological profile = type: in vivo, male Wistar rats; conditions: means ± SEM; for Hematocrit / Hemoglobin / Lymphocytes / MCH / MCV / Neutrophils / Platelets / RBC / WBC: blood; for Protime (prothrombin time): citrated blood
Experimental: as §2

[4] = system: gastrocnemius of hindlimb-immobilized rats; experiment: Muscle atrophy and recovery after unilateral hindlimb immobilization (gastrocnemius weight); type: in vivo, male Wistar rats; conditions: for Muscle regrowth (gastrocnemius mass) 7 days after removal of the cast: 7 days immobilization + 7 days recovery, compared to control diet; for Decrease in gastrocnemius mass by immobilization: 7 days of cast immobilization, versus contralateral uncasted limb; for Mass of previously immobilized gastrocnemius compared to contralateral uncasted muscle: recovery day 14
From the text: as §1

[5] = Organ weights of rats fed supplemented diets
From the text: (§3) Animal protocols. The experiments described herein were broadly organized into two experimental series. Both studies used male Wistar rats (Charles River Breeding Laboratories, Cambridge, Mass.) which acclimated for 1 week in a controlled environment. Rats were shipped at 350-375 g and were approximately 12 wks of age. Water and standard rat chow were provide ad libitum.
(§4) The following custom diets were commercially prepared (Dytes, Bethlehem, Pa.): control diet (AIN93M), or isocaloric, isonitrogenous diets supplemented with α-hydroxy-isocaproic acid (HICA) or leucine (Leu) (Table 1). […] Therefore, animals were provided the dietary intervention for a period of 6 days prior to hindlimb immobilization.
(§5) The foot was positioned in plantar-flexion to induce maximal atrophy of the gastrocnemius and rats received 10 ml of 0.9% warmed (37° C.) sterile saline for resuscitation. […] Consequently, the contralateral limb served as the control in all subsequent experiments. After casting, rats were housed individually and were continued to be pair-fed for a period of 7 days. Water was provided ad libitum. On day 7 after casting, rats were anesthetized with pentobarbital and the cast atraumatically and rapidly (<2 min) removed (Stryker Instruments, Kalamzoo, Mich.).

[6] = rat, in vivo
From the text: as §3, §4, §5

[7] = means ± SEM, all studies combined, no unit in table
[8] = means ± SEM, all studies combined
[9] = supplemented diet, means ± SEM, all studies combined

O=C(O)CCC(=O)C(=O)O [AKG, α-ketoglutarate]
Crypt depth [1]: reduced crypt depth | Phosphorylation of intestinal mTOR [1]: increased phosphorylation | Villous height [1]: increased villous height

CC(C)CC(O)C(=O)O (stereo not drawn) [HICA, α-hydroxy-isocaproic acid]
Increment in protein synthesis in the previously immobilized muscle ([2]; after a 7-day recovery period, not statistically significant versus control-fed rats): 0.77±0.17 nmol Phe/h/mg protein | Protein synthesis in the previously immobilized muscle compared to contralateral uncasted muscle ([2]; day 14 of recovery): still increased | Increment in muscle protein synthesis compared to other groups ([2]; day 14 of recovery, failed to achieve statistical significance): tended to be increased | In-vivo-determined tissue protein synthesis: Liver [2, 7]: 24.41 ± 0.90 | In-vivo-determined tissue protein synthesis: Heart [2, 8]: 2.76 ± 0.11 | Immobilization (casting)-induced decrease in muscle protein synthesis [2]: no immobilization-induced decrease | Immobilization (casting)-induced decrease in muscle protein synthesis ([2]; listed as αHICA): prevented the casting-induced decrease in muscle protein synthesis | In-vivo-determined tissue protein synthesis: GAstrocnemius (control) ([2]; uncasted control muscle, means ± SEM, all studies combined, no unit in table): 1.26 ± 0.04 | Basal rate of protein synthesis in uncasted muscle, lower than control-fed rats ([2]; uncasted gastrocnemius): 10% | Insulin [3]: 1.90 ± 0.15 a ng/ml | HOMA-IR (homeostatic model assessment of insulin resistance) [3]: 27.1 ± 3.2 a | Triglycerides [3]: 609 ± 51 µmol/L | Markers of renal function (creatinine and BUN) compared to control values ([3]; rat, in vivo): generally unaffected | Serum insulin concentration compared to control rats ([3]; rat, in vivo): did not differ | ALT [3]: 24 ± 1 U/L | AST [3]: 74 ± 4 U/L | Albumin [3]: 3.31 ± 0.04 g/dL | BUN [3]: 16.2 ± 0.6a mg/dL | Bilirubin, total [3]: 0.5 ± 0.04 mg/dL | Calcium [3]: 9.5 ± 0.1 mg/dL | Chloride [3]: 101 ± 1 mmol/L | Cholesterol [3]: 62 ± 3 mg/dL | Creatinine [3]: 0.3 ± 0.02 mg/dL | Glucose [3]: 223 ± 11 mg/dL | LDH [3]: 232 ± 23 U/L | Phosphorous [3]: 5.8 ± 0.2a mg/dL | Potassium [3]: 4.9 ± 0.1a mmol/L | Protein, total [3]: 5.0 ± 0.1 g/dL | Sodium [3]: 141 ± 1 mmol/L | Deleterious effects on whole-body and tissue-specific metabolic and hematological parameters ([3]; supplementation for up to 3 wks): no apparent deleterious effects | Hematocrit (Hematological profile): 40 ± 1% | Hemoglobin (Hematological profile): 15.2 ± 0.5 g/dL | Lymphocytes (Hematological profile): 70 ± 2% | MCH (Hematological profile): 17.9 ± 0.1 pg | MCV (Hematological profile): 47 ± 1 fL | Neutrophils (Hematological profile): 24 ± 2% | Platelets (Hematological profile): 1207 ± 60 103/μl | RBC (Hematological profile): 8.49 ± 0.31 106/μl | WBC (Hematological profile): 2.5 ± 0.2 103/μl | Protime (prothrombin time) (Hematological profile): 19 ± 1 s | Muscle regrowth (gastrocnemius mass) 7 days after removal of the cast [4]: not altered | Decrease in gastrocnemius mass by immobilization [4]: 0.61 ± 0.09 g | Mass of previously immobilized gastrocnemius compared to contralateral uncasted muscle [4]: did not differ; also recorded: complete recovery of mass | Prevention or amelioration of the reduction in muscle mass produced by disuse ([4]; unilateral hindlimb immobilization): failed to prevent or ameliorate the accompanying reduction in muscle mass | Organ weight: Liver ([5]; diet with α-HICA 50.4 g/kg or leucine 50 g/kg, means ± SEM, data combined from all studies): 12.00 ± 0.35 g | Kidney weight compared between diets ([5]; rat, in vivo): did not differ | Organ weight: Adrenal [5, 9]: 403 ± 16 mg | Organ weight: Kidney [5, 9]: 1.22 ± 0.03 g | Organ weight: Spleen [5, 9]: 960 ± 37 mg | Organ weight: Testes [5, 9]: 1.82 ± 0.03 g | Organ weight: Heart ([5]; ventricle only, supplemented diet, means ± SEM, all studies combined): 1.13 ± 0.02 g

CC(C)C[C@H](N)C(=O)O [Leucine, leucine]
Protein synthesis in the previously immobilized muscle compared to contralateral uncasted muscle ([2]; day 14 of recovery, listed as Leu): not different from the uncasted muscle; also recorded: returned to basal values | In-vivo-determined tissue protein synthesis: Liver [2, 7]: 22.51 ± 0.88 | In-vivo-determined tissue protein synthesis: Heart [2, 8]: 2.93 ± 0.11 | Immobilization (casting)-induced decrease in muscle protein synthesis ([2]; listed as Leu): decreased protein synthesis to the same extent; also recorded: failed to prevent the casting-induced decrease in protein synthesis | Protein synthesis in the uncasted muscle compared to control-fed rats ([2]; uncasted gastrocnemius): did not differ | Insulin [3]: 3.64 ± 0.32 c ng/ml | HOMA-IR (homeostatic model assessment of insulin resistance) [3]: 47.7 ± 4.6b | Triglycerides [3]: 667 ± 52 µmol/L | HOMA-IR compared to control rats or those fed a HICA-containing diet ([3]; rat, in vivo): significantly greater | Markers of renal function (creatinine and BUN) compared to control values ([3]; rat, in vivo): generally unaffected | Serum phosphorus concentration, elevation compared to control values ([3]; rat, in vivo): 18% | Serum potassium concentration compared to control- or HICA-fed rats ([3]; rat, in vivo): lower | ALT [3]: 24 ± 1 U/L | AST [3]: 68 ± 4 U/L | Albumin [3]: 3.42 ± 0.03 g/dL | BUN [3]: 16.2 ± 0.5a mg/dL | Bilirubin, total [3]: 0.3 ± 0.02 mg/dL | Calcium [3]: 9.6 ± 0.1 mg/dL | Chloride [3]: 100 ± 1 mmol/L | Cholesterol [3]: 63 ± 4 mg/dL | Creatinine [3]: 0.3 ± 0.01 mg/dL | Glucose [3]: 214 ± 8 mg/dL | LDH [3]: 169 ± 21 U/L | Phosphorous [3]: 7.0 ± 0.2b mg/dL | Potassium [3]: 4.1 ± 0.1b mmol/L | Protein, total [3]: 5.0 ± 0.1 g/dL | Sodium [3]: 140 ± 1 mmol/L | Hematocrit (Hematological profile): 41 ± 1% | Hemoglobin (Hematological profile): 15.7 ± 0.3 g/dL | Lymphocytes (Hematological profile): 73 ± 3% | MCH (Hematological profile): 17.9 ± 0.2 pg | MCV (Hematological profile): 47 ± 1 fL | Neutrophils (Hematological profile): 23 ± 3% | Platelets (Hematological profile): 1206 ± 56 103/μl | RBC (Hematological profile): 8.98 ± 0.28 106/μl | WBC (Hematological profile): 2.7 ± 0.2 103/μl | Protime (prothrombin time) (Hematological profile): 18 ± 1 s | Muscle regrowth (gastrocnemius mass) 7 days after removal of the cast [4]: not altered | Decrease in gastrocnemius mass by immobilization [4]: 0.57 ± 0.08 g | Mass of previously immobilized gastrocnemius compared to contralateral uncasted muscle ([4]; listed as Leu): a reduction in mass of the previously immobilized muscle was still detected; also recorded: partial recovery of gastrocnemius mass | Kidney weight compared between diets [6]: did not differ
